Test results taken from ChEMBL document CHEMBL1201862, “PubChem BioAssay data set” (2004).
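Each compound was tested at five concentrations against cells in 96-well plates for 48 hours. Here, GI50 denotes the concentration required for 50% inhibition of growth.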 Active and inactive are the calls of the source. Rule as the data show it: active = GI50 up to about 1.1 µM and inactive = higher.

Key:
Experiment in all cases: growth of human tumour cells (NCI), 48 h
[1] = test system: SN12C
[2] = test system: HCT-116
[3] = test system: OVCAR-3
[4] = test system: UACC-62
[5] = test system: HL-60
[6] = test system: KM-20L2
[7] = test system: UACC-257
[8] = test system: DLD-1
[9] = test system: LOX IMVI
[10] = test system: CAKI-1
[11] = test system: SNB-19
[12] = test system: NCI-H226
[13] = test system: COLO 205
[14] = test system: A549
[15] = test system: TK-10
[16] = test system: SF-539
[17] = test system: HOP-62
[18] = test system: HT-29
[19] = test system: OVCAR-4
[20] = test system: U-251
[21] = test system: HCT-15
[22] = test system: IGROV-1
[23] = test system: NCI-H460
[24] = test system: UO-31
[25] = test system: SF-268
[26] = test system: DMS-273
[27] = test system: SNB-78
[28] = test system: LXFL 529
[29] = test system: SK-OV-3
[30] = test system: OVCAR-8
[31] = test system: RPMI-8226
[32] = test system: 786-0
[33] = test system: M14
[34] = test system: Malme-3M
[35] = test system: NCI-H522
[36] = test system: KM12
[37] = test system: SF-295
[38] = test system: SW-620
[39] = test system: EKVX
[40] = test system: NCI-H23
[41] = test system: K562
[42] = test system: DMS-114
[43] = test system: OVCAR-5
[44] = test system: HOP-92
[45] = test system: SNB-75
[46] = test system: ACHN
[47] = test system: M19-MEL
[48] = test system: SK-MEL-5
[49] = test system: HCC 2998
[50] = test system: CCRF-CEM
[51] = test system: SK-MEL-28
[52] = test system: RXF 393
[53] = test system: SR
[54] = test system: A498
[55] = test system: PC-3
[56] = test system: T47D
[57] = test system: MCF7
[58] = test system: MDA-MB-231
[59] = test system: NCI/ADR-RES
[60] = test system: MOLT-4
[61] = test system: BT-549
[62] = test system: DU-145
[63] = test system: MDA-MB-435
[64] = test system: SK-MEL-2
[65] = test system: Hs-578T
[66] = test system: MDA-N

In the case of CN1C2(c3ccccc3)C(C(=O)c3ccccc3)=C(C(=O)c3ccccc3)C1(c1ccccc1)c1c(-c3ccccc3)sc(-c3ccccc3)c12, the GI50 [1] is reported as > 100 µM (inactive), the GI50 [2] is reported as > 100 µM (inactive) and the GI50 [3] is reported as > 100 µM (inactive). The GI50 [4] was > 100 µM (inactive), the GI50 [5] was > 100 µM (inactive) and the GI50 [6] was > 100 µM (inactive). The GI50 [7] was > 100 µM (inactive), the GI50 [8] was > 100 µM (inactive) and the GI50 [9] was > 100 µM (inactive). The GI50 [10] was > 100 µM (inactive), the GI50 [11] was > 100 µM (inactive) and the GI50 [12] was 78.5 µM (inactive). For the same molecule, the GI50 [13] was > 100 µM (inactive), the GI50 [14] was > 100 µM (inactive) and the GI50 [15] was > 100 µM (inactive). The GI50 [16] was > 100 µM (inactive), the GI50 [17] was > 100 µM (inactive) and the GI50 [18] was > 100 µM (inactive). The GI50 [19] was > 100 µM (inactive), the GI50 [20] was > 100 µM (inactive) and the GI50 [21] was > 100 µM. The GI50 [22] was > 100 µM (inactive), the GI50 [23] was > 100 µM (inactive) and the GI50 [24] was > 100 µM (inactive). For the same molecule, the GI50 [25] was > 100 µM (inactive), the GI50 [26] was > 100 µM (inactive) and the GI50 [27] was > 100 µM (inactive). For the same molecule, the GI50 [28] was > 100 µM (inactive), the GI50 [29] was > 100 µM (inactive) and the GI50 [30] was > 100 µM (inactive). The GI50 [31] was > 100 µM (inactive), the GI50 [32] was > 100 µM (inactive) and the GI50 [33] was > 100 µM (inactive). For the same molecule, the GI50 [34] was > 100 µM (inactive), the GI50 [35] was > 100 µM (inactive) and the GI50 [36] was > 100 µM (inactive). The GI50 [37] was > 100 µM (inactive), the GI50 [38] was > 100 µM (inactive) and the GI50 [39] was > 100 µM (inactive). For the same molecule, the GI50 [40] was > 100 µM (inactive), the GI50 [41] was > 100 µM (inactive) and the GI50 [42] was > 100 µM (inactive). For the same molecule, the GI50 [43] was > 100 µM (inactive), the GI50 [44] was > 100 µM (inactive) and the GI50 [45] was > 100 µM (inactive). For the same molecule, the GI50 [46] was > 100 µM (inactive), the GI50 [47] was > 100 µM (inactive) and the GI50 [48] was > 100 µM (inactive). For the same molecule, the GI50 [49] was > 100 µM (inactive), the GI50 [50] was > 100 µM (inactive) and the GI50 [51] was > 100 µM (inactive). The GI50 [52] was > 100 µM (inactive), the GI50 [53] was > 100 µM (inactive) and the GI50 [54] was > 100 µM (inactive).
COC(=O)c1ccc([N+](=O)[O-])c(O)c1 was tested, and the GI50 [1] was > 100 µM (inactive), the GI50 [2] was > 100 µM (inactive) and the GI50 [3] was > 100 µM (inactive). For the same molecule, the GI50 [4] was > 100 µM (inactive), the GI50 [5] was > 100 µM (inactive) and the GI50 [7] was > 100 µM (inactive). For the same molecule, the GI50 [9] was > 100 µM (inactive), the GI50 [10] was > 100 µM (inactive) and the GI50 [11] was > 100 µM (inactive). For the same molecule, the GI50 [55] was > 100 µM (inactive), the GI50 [12] was > 100 µM (inactive) and the GI50 [13] was > 100 µM (inactive). The GI50 [14] was > 100 µM (inactive), the GI50 [15] was > 100 µM (inactive) and the GI50 [16] was > 100 µM (inactive). The GI50 [17] was > 100 µM (inactive), the GI50 [18] was > 100 µM (inactive) and the GI50 [19] was 19.9 µM (inactive). For the same molecule, the GI50 [56] was > 100 µM (inactive), the GI50 [20] was > 100 µM (inactive) and the GI50 [21] was > 100 µM. For the same molecule, the GI50 [22] was > 100 µM (inactive), the GI50 [23] was > 100 µM (inactive) and the GI50 [24] was > 100 µM (inactive). For the same molecule, the GI50 [25] was > 100 µM (inactive), the GI50 [57] was > 100 µM (inactive) and the GI50 [58] was > 100 µM (inactive). The GI50 [59] was > 100 µM (inactive), the GI50 [60] was > 100 µM (inactive) and the GI50 [29] was > 100 µM (inactive). The GI50 [30] was > 100 µM (inactive), the GI50 [61] was > 100 µM (inactive) and the GI50 [31] was > 100 µM (inactive). For the same molecule, the GI50 [62] was > 100 µM (inactive), the GI50 [32] was > 100 µM (inactive) and the GI50 [63] was 8.55 µM (inactive). The GI50 [33] was > 100 µM (inactive), the GI50 [34] was > 100 µM (inactive) and the GI50 [64] was > 100 µM (inactive). For the same molecule, the GI50 [35] was > 100 µM (inactive), the GI50 [36] was > 100 µM (inactive) and the GI50 [37] was > 100 µM (inactive). The GI50 [38] was > 100 µM (inactive), the GI50 [39] was > 100 µM (inactive) and the GI50 [40] was > 100 µM (inactive). For the same molecule, the GI50 [41] was > 100 µM (inactive), the GI50 [43] was > 100 µM (inactive) and the GI50 [65] was > 100 µM (inactive). For the same molecule, the GI50 [44] was > 100 µM (inactive), the GI50 [66] was > 100 µM (inactive) and the GI50 [45] was > 100 µM (inactive). The GI50 [46] was > 100 µM (inactive), the GI50 [48] was > 100 µM (inactive) and the GI50 [49] was > 100 µM (inactive). For the same molecule, the GI50 [50] was > 100 µM (inactive), the GI50 [51] was > 100 µM (inactive) and the GI50 [52] was > 100 µM (inactive). For the same molecule, the GI50 [53] was > 100 µM (inactive) and the GI50 [54] was > 100 µM (inactive).
